Assay results from ChEMBL document CHEMBL1201862, “PubChem BioAssay data set” (2004).
Activity calls are given as the source filed them.

Experiments:
[1] = target: Envelope glycoprotein gp160 (Human immunodeficiency virus 1, UniProt Q6QLK5); assay: cell-free HIV fusion peptide-binding blockers – biochemical, uHTS, fluorescence dequenching, […] (AID 1986)
[2] = target: Induced myeloid leukemia cell differentiation protein Mcl-1 (Homo sapiens, UniProt Q07820); format: functional
[3] = viability loss in THP-1 monocytes – THP-1 cells, cytotoxicity control for Vif-APOBEC3G degradation inhibitor project, dose response (AID 1117359); format: functional; conditions: THP-1
[4] = loss of viability in HepG2 cells – cell-based, CellTiter-Glo, cherry-picked, cytotoxicity control for Shn3 inhibitor project, dose response (AID 624134); format: functional
[5] = non-specific 3'UTR reporter inhibition in Clone20-Shn3RL – cell-based, Renilla luciferase, cherry-picked, counter-screen for Shn3 inhibitor project, dose response (AID 624133); format: functional
[6] = inhibition of ADAM10 peptide cleavage – biochemical, FRET peptide substrate, recombinant human ADAM10, selectivity assay for ADAM17 exosite inhibitor project, dose response (AID 743259);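 also: ADAM10 enzyme cleaving a FRET peptide substrate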
[7] = target: Disintegrin and metalloproteinase domain-containing protein 17 (Homo sapiens, UniProt P78536); assay: exosite inhibitors of ADAM17, dose response, biochemical (AID 743260)
Chain of Disintegrin and metalloproteinase domain-containing protein 17 (P78536 whole entry, the tested form may be a part): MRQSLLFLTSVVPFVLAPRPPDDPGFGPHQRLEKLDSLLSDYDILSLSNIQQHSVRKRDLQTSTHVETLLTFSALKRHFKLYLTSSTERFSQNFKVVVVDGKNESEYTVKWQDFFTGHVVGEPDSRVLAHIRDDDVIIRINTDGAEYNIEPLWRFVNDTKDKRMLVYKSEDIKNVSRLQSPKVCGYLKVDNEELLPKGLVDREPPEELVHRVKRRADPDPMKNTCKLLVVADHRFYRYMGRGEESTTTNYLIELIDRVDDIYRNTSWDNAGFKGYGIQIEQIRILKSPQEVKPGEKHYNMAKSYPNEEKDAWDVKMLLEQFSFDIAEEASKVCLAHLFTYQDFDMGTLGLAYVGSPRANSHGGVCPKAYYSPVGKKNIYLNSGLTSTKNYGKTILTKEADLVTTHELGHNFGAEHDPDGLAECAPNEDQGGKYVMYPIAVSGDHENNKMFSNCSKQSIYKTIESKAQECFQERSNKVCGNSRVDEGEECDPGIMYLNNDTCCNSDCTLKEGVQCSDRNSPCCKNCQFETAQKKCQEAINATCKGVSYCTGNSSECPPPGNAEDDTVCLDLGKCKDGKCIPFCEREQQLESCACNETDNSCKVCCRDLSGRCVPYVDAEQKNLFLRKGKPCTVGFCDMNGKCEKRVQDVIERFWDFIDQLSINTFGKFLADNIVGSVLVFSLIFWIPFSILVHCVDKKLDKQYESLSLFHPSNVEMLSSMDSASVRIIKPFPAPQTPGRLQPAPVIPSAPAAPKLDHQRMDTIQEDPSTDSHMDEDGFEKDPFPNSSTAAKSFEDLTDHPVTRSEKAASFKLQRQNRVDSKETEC

[8] = non-PhoP GFP expression and growth suppression – purified and synthesized compounds, set 2, counter-screen for PhoP regulon inhibitor project, dose response (AID 2834); format: functional
[9] = reduction of Shn3 3'UTR-driven luciferase in osteoblasts – cell-based, Clone20 osteoblasts, firefly luciferase, cherry-picked, dose response (AID 624132); format: functional;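 also: firefly luciferase luminescence from reporter carrying the Shn3 3'UTR in osteoblasts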
[10] = target: Cyclin-dependent kinase 5/CDK5 activator 1 (Homo sapiens, UniProt Q00535); assay: blockade of human CDK5 activity – biochemical, cherry-picked samples, set 2, dose response (AID 504545)
Chain of Cyclin-dependent kinase 5/CDK5 activator 1 (Q00535 whole entry): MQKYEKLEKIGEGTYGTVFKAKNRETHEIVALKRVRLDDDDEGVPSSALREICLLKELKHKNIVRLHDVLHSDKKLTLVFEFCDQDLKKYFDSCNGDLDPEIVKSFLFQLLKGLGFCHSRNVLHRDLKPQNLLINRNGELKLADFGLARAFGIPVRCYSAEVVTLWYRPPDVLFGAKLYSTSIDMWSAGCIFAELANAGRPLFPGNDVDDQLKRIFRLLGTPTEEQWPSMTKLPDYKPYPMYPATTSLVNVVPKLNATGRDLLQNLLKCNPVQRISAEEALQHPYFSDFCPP
Chain of Cyclin-dependent kinase 5/CDK5 activator 1 (Q15078 whole entry, further chain): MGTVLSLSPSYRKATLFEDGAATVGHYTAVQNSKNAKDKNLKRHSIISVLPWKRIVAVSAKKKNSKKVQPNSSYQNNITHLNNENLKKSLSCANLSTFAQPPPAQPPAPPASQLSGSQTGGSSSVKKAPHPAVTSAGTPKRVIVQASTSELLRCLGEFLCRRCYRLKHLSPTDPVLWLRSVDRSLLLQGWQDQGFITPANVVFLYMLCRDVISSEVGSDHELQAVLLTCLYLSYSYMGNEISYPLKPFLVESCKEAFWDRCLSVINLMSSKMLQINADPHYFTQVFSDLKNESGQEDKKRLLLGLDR

[11] = target: T1, Neuropeptide Y receptor type 2 (Homo sapiens, UniProt P49146); assay: Fluorescence-based cell-based high-throughput dose response assay for agonists of NPY-Y2. [Related pubchem assays: 1703 (Screening assay (CNGC inhibitors).), 1359 (Screening assay (NPY-Y2 potentiators or agonists).), 1304 (Screening assay (NPY-Y1 potentiators or agonists).), 1710 (Screening assay (NPY-Y2 agonists).), 1791 (Summary AID.)]; format: functional
T1 sequence (P49146 whole entry): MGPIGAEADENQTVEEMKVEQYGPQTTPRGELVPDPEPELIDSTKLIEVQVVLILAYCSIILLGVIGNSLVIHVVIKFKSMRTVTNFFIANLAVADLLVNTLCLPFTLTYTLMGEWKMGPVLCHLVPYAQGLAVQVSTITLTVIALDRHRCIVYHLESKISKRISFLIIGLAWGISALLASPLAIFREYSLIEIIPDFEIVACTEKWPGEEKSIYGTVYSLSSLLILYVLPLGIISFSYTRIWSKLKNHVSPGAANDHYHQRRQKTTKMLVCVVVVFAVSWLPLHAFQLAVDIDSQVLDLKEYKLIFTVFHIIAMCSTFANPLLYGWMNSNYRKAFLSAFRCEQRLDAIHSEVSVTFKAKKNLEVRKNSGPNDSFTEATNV

cells = format: functional, cell-based; conditions: HEK-CNG
Galanin receptor type 3 = target: T2, Galanin receptor type 3 (Homo sapiens, UniProt O60755); assay: Fluorescence-based cell-based primary high throughput dose response assay to identify antagonists of the Galanin Receptor 3 (GalR3).; format: functional
T2 sequence (O60755 whole entry): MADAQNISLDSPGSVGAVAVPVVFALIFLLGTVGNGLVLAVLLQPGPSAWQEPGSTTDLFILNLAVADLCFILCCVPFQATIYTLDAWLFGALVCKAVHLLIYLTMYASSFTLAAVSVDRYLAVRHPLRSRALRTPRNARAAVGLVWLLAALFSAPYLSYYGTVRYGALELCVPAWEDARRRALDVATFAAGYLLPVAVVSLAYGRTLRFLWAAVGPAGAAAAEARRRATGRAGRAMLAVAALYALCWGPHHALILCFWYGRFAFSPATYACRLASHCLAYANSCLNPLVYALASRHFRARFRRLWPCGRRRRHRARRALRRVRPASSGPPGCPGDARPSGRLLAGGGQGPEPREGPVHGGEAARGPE

[12] = target: T3, Neuropeptide Y receptor type 1 (Homo sapiens, UniProt P25929); assay: Fluorescence-based counterscreen for agonists of NPY-Y2: cell-based high-throughput dose response assay for agonists of NPY-Y1.; format: functional
T3 sequence (P25929 whole entry): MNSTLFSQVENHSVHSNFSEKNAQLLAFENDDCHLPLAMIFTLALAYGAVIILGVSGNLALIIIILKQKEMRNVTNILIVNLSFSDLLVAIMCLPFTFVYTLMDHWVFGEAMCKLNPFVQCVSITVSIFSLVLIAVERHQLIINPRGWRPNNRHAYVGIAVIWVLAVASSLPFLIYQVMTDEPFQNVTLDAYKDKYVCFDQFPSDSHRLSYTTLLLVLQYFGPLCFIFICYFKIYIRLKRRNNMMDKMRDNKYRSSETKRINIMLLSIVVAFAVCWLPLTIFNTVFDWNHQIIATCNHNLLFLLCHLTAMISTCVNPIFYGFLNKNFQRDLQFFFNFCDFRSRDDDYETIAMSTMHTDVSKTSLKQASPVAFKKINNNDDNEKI

HEK293 = assay: Fluorescence-based counterscreen for potentiators or agonists of NPY-Y2: cell-based high-throughput dose response assay to identify inhibitors of cyclic nucleotide gated ion channel (CNGC) activity. In this assay, the parental HEK293 cell line transfected with a cyclic-nucleotide gated ion channel (CNGC)-based cAMP sensor is used to measure inhibition of isoproterenol-induced CNGC activity by test compound.; format: functional; conditions: Homo sapiens;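 also: stimulus is 1 µM isoproterenol at EC100 plus PDE inhibitor Ro 20-1724 at 25 µM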

Chain of Induced myeloid leukemia cell differentiation protein Mcl-1 (Q07820 whole entry): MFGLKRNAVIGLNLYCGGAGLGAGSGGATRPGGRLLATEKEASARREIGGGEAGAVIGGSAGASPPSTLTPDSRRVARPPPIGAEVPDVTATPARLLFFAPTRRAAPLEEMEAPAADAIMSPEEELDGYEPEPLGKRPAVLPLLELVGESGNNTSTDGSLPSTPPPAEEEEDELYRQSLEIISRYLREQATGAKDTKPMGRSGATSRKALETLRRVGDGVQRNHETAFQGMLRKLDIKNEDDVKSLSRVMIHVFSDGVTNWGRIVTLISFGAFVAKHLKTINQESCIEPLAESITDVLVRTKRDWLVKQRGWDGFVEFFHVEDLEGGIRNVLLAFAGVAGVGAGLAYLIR
Chain of Envelope glycoprotein gp160 (Q6QLK5 whole entry, the tested form may be a part): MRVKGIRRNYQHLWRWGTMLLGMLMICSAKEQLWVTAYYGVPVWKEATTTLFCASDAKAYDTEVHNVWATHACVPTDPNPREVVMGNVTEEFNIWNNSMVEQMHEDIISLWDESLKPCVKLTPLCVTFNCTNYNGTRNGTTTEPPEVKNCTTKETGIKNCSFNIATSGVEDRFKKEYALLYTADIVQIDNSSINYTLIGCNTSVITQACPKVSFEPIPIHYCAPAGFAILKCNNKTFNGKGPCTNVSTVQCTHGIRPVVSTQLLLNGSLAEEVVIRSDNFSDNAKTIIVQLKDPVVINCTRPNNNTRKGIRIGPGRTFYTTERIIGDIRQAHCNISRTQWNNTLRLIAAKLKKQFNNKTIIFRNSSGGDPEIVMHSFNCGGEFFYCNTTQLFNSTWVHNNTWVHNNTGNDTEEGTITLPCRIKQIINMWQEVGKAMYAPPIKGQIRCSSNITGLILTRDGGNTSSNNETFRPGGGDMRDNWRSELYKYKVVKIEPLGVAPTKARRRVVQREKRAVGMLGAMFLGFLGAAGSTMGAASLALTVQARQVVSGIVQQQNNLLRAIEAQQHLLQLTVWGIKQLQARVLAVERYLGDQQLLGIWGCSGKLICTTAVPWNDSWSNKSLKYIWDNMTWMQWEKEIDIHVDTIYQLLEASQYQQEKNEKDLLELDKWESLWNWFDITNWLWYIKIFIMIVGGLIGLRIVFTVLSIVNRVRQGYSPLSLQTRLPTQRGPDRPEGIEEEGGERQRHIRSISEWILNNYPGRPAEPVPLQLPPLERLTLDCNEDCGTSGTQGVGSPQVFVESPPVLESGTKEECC

O=C(O)C[C@@H]1C(=O)O[C@@H]2C(COC(=O)c3cc(O)c(O)c(O)c3)O[C@@H](OC(=O)c3cc(O)c(O)c(O)c3)[C@@H](OC(=O)c3cc(O)c(O)c4c3[C@H]1[C@H](O)C(=O)O4)[C@H]2OC(=O)c1cc(O)c(O)c(O)c1 (stereo not given in full)
IC50 [1]: 11.2 µM (active) | IC50 [2]: 1.52 µM (active) | CC50 [3]: > 40 µM (active)

S=C(NCc1ccc(Cl)cc1)Nc1ccncc1
AC50 [4]: 22.1 µM (active) | AC50 [5]: > 70 µM (inactive) | IC50 [6]: > 69.6 µM (inactive) | IC50 [7]: > 69.6 µM (inactive) | IC50 [8]: > 125 µM (active) | AC50 [9]: 1.5 µM (active)

CCCc1cc(-c2[nH]ncc2-c2ccc(C(=O)OCC)o2)c(O)cc1O
AC50 [10]: 10 µM (active) | EC50 [11]: > 35.4 µM (not active) | EC50 (cells): > 29.9 µM (inactive) | IC50 (Galanin receptor type 3): 12.8 µM (inactive) | EC50 [12]: 18.5 µM (not active) | EC50 (HEK293): > 35.4 µM (not active)
